Measured values reported in ChEMBL document CHEMBL4507299, “Data for DCP probe PF-04554878” (2021).

What was measured:
[1] = target: Tyrosine-protein kinase ABL1 (Homo sapiens, UniProt P00519)
[2] = target: RAC-gamma serine/threonine-protein kinase (Homo sapiens) (UniProt Q9Y243)
[3] = tested on: ALK tyrosine kinase receptor (Homo sapiens), Q9UM73 [L1196M]
[4] = target: 5'-AMP-activated protein kinase catalytic subunit alpha-1 (Homo sapiens) (UniProt Q13131)
[5] = target: Serine/threonine-protein kinase BRSK1 (Homo sapiens) (UniProt Q8TDC3)
[6] = target: Calcium/calmodulin-dependent protein kinase type 1G (Homo sapiens) (UniProt Q96NX5)
[7] = target: Calcium/calmodulin-dependent protein kinase kinase 1 (Homo sapiens) (UniProt Q8N5S9)
[8] = target: Cyclin-dependent kinase 11B (Homo sapiens) (UniProt P21127)
[9] = target: Cyclin-dependent kinase-like 2 (Homo sapiens) (UniProt Q92772)
[10] = target: Casein kinase II subunit alpha (Homo sapiens) (UniProt P68400)
[11] = tested on: Epidermal growth factor receptor (Homo sapiens), P00533 [L858R,T790M]
[12] = target: Ephrin type-A receptor 4 (Homo sapiens) (UniProt P54764)
[13] = target: Ephrin type-A receptor 5 (Homo sapiens) (UniProt P54756)
[14] = target: Ephrin type-A receptor 7 (Homo sapiens) (UniProt Q15375)
Sequence of Ephrin type-A receptor 7 (Homo sapiens) (Q15375 28-998 limits assumed): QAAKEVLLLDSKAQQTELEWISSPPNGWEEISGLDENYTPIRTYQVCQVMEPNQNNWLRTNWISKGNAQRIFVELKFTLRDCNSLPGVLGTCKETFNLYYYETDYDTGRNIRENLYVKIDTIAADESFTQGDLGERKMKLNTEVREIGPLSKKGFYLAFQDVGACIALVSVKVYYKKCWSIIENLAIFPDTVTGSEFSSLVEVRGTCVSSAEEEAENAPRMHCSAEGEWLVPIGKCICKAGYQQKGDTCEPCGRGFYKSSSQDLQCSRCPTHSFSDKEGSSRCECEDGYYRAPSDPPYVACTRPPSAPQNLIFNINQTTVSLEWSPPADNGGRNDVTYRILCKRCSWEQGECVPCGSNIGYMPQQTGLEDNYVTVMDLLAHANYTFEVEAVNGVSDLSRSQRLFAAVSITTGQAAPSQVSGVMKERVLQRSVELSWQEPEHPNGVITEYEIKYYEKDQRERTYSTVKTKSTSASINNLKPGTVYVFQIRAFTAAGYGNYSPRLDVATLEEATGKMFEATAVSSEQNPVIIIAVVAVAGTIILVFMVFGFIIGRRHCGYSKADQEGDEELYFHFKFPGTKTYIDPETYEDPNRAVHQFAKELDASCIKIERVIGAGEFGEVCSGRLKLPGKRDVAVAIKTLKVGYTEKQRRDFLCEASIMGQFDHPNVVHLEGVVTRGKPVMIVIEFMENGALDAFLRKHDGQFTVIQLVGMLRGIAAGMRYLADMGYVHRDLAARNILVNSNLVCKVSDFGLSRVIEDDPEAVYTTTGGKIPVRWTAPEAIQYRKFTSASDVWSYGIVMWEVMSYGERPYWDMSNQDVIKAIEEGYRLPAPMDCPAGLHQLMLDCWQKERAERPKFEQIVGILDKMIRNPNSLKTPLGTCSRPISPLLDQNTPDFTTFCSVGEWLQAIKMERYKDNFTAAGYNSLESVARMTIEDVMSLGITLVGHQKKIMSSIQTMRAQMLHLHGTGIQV

Focal adhesion kinase 1 = Focal adhesion kinase 1 (Homo sapiens, UniProt Q05397)
[15] = target: Tyrosine-protein kinase Fer (Homo sapiens) (UniProt P16591)
[16] = target: Fibroblast growth factor receptor 3 (Homo sapiens) (UniProt P22607)
[17] = target: Homeodomain-interacting protein kinase 3 (Homo sapiens) (UniProt Q9H422)
[18] = target: Hormonally up-regulated neu tumor-associated kinase (Homo sapiens) (UniProt P57058)
Sequence of Hormonally up-regulated neu tumor-associated kinase (Homo sapiens) (P57058 whole entry): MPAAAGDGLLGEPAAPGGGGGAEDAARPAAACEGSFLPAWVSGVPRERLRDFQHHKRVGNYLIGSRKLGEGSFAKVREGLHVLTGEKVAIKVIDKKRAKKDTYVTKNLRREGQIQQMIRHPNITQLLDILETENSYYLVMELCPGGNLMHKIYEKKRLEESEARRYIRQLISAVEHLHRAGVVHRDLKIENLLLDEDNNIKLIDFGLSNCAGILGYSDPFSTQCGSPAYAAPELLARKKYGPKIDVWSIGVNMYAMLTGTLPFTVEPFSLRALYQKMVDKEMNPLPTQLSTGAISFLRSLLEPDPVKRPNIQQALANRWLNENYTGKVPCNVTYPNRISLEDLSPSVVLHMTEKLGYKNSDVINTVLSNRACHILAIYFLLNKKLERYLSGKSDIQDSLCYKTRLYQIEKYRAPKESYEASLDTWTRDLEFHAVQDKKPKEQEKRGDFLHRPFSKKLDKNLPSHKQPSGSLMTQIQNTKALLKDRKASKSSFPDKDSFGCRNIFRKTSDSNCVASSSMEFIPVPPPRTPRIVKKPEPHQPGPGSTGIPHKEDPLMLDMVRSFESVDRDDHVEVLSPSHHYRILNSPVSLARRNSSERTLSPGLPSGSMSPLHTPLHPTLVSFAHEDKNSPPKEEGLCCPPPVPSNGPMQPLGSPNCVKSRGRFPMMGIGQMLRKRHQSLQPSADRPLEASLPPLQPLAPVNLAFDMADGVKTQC

[19] = target: Inhibitor of nuclear factor kappa-B kinase subunit alpha (Homo sapiens) (UniProt O15111)
[20] = target: Insulin receptor-related protein (Homo sapiens) (UniProt P14616)
[21] = target: Interleukin-1 receptor-associated kinase 3 (Homo sapiens) (UniProt Q9Y616)
[22] = tested on: Mast/stem cell growth factor receptor Kit (Homo sapiens), P10721 [D816H]
Sequence of Mast/stem cell growth factor receptor Kit (Homo sapiens), P10721 [D816H] (P10721 whole entry D816H): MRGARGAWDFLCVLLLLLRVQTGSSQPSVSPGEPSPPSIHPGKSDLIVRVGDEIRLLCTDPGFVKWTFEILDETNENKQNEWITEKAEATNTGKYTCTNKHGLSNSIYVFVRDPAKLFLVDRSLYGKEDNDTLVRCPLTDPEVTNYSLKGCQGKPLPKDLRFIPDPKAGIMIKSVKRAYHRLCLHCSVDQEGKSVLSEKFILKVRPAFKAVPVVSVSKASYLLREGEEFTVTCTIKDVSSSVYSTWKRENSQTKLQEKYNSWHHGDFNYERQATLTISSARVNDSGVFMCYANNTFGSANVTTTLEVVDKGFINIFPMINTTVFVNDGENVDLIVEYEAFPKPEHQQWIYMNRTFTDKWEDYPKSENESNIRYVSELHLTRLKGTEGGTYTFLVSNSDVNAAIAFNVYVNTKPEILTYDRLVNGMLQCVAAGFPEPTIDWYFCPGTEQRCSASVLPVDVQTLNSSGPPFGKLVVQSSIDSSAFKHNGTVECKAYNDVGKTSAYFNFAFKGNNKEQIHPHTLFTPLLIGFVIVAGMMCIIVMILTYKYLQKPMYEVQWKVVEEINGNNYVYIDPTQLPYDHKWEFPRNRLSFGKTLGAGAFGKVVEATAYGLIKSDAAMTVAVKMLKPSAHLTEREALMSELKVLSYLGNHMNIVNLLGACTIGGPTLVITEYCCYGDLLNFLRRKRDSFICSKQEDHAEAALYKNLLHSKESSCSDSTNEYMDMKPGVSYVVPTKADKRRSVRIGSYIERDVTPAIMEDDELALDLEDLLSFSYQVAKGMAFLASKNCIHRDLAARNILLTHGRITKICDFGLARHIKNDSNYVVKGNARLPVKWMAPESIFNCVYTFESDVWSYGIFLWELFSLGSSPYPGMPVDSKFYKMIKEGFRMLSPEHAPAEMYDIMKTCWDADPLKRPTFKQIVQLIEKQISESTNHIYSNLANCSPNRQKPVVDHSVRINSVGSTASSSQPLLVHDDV

[23] = target: MAP/microtubule affinity-regulating kinase 4 (Homo sapiens) (UniProt Q96L34)
[24] = target: Mitogen-activated protein kinase kinase kinase 10 (Homo sapiens) (UniProt Q02779)
[25] = target: Serine/threonine-protein kinase MRCK alpha (Homo sapiens) (UniProt Q5VT25)
[26] = target: Myosin light chain kinase family member 4 (Homo sapiens) (UniProt Q86YV6)
[27] = target: Serine/threonine-protein kinase Nek10 (Homo sapiens) (UniProt Q6ZWH5)
Sequence of Serine/threonine-protein kinase Nek10 (Homo sapiens) (Q6ZWH5 whole entry): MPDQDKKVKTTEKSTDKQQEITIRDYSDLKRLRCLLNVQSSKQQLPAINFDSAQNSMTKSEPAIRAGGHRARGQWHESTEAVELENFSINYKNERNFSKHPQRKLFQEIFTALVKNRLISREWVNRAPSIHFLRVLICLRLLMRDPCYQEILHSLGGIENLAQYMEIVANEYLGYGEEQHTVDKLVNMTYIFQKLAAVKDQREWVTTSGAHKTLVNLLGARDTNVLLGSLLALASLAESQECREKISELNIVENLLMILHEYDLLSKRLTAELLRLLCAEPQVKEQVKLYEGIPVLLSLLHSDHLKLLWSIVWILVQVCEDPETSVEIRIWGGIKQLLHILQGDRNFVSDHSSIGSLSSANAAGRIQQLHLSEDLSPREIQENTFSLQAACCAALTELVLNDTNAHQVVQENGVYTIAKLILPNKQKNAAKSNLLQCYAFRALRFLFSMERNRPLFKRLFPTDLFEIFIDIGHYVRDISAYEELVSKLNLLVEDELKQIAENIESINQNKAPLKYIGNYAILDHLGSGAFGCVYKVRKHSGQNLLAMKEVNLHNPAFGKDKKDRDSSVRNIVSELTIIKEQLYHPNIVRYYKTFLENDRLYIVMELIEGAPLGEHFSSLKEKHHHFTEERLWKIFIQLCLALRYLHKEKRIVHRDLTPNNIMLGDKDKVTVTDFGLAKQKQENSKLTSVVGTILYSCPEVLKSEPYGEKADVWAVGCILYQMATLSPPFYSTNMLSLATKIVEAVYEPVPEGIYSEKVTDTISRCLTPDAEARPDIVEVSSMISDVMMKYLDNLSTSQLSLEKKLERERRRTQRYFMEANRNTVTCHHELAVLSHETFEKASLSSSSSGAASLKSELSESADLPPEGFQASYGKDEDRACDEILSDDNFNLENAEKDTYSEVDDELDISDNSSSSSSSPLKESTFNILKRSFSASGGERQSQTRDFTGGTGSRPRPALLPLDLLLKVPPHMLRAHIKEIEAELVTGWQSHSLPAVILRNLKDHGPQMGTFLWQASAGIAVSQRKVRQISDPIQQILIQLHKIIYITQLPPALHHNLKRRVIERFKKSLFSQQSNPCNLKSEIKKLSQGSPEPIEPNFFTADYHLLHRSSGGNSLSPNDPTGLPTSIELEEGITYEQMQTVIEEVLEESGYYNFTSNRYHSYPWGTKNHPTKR

[28] = target: Serine/threonine-protein kinase PAK 3 (Homo sapiens) (UniProt O75914)
[29] = target: Cyclin-dependent kinase 16 (Homo sapiens) (UniProt Q00536)
[30] = target: Cyclin-dependent kinase 15 (Homo sapiens) (UniProt Q96Q40)
Sequence of Cyclin-dependent kinase 15 (Homo sapiens) (Q96Q40 whole entry): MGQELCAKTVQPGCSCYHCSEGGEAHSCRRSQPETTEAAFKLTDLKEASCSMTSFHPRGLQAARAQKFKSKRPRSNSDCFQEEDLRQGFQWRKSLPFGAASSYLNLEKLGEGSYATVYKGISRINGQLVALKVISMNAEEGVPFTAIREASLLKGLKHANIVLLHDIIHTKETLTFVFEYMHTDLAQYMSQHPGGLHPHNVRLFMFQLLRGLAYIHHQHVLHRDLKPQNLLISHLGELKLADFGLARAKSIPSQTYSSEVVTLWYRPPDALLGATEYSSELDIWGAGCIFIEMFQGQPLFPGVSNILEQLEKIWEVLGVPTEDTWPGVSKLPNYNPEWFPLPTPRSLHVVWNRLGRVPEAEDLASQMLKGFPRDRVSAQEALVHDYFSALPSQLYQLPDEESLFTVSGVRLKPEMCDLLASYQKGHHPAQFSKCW

[31] = tested on: Proto-oncogene tyrosine-protein kinase receptor Ret (Homo sapiens), P07949 [V804L]
[32] = target: Receptor-interacting serine/threonine-protein kinase 1 (Homo sapiens) (UniProt Q13546)
[33] = target: Receptor-interacting serine/threonine-protein kinase 2 (Homo sapiens) (UniProt O43353)
Sequence of Receptor-interacting serine/threonine-protein kinase 2 (Homo sapiens) (O43353 whole entry): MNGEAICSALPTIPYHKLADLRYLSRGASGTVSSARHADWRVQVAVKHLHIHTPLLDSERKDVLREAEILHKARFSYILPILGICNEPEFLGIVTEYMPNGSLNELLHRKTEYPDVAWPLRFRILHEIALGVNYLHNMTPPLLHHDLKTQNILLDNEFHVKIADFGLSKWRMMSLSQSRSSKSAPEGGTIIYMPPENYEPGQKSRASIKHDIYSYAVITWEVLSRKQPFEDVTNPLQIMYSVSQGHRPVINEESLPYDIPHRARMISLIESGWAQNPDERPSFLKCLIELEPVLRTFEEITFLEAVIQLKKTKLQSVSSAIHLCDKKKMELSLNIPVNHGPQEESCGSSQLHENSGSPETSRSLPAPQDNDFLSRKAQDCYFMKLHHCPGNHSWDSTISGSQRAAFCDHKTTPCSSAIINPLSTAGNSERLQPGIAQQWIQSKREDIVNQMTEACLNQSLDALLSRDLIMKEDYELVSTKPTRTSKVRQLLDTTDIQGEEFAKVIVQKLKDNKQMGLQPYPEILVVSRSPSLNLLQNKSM

[34] = target: Receptor-interacting serine/threonine-protein kinase 4 (Homo sapiens) (UniProt P57078)
[35] = target: SRSF protein kinase 1 (Homo sapiens) (UniProt Q96SB4)
[36] = target: TGF-beta receptor type-1 (Homo sapiens) (UniProt P36897)
[37] = target: TGF-beta receptor type-2 (Homo sapiens) (UniProt P37173)
[38] = target: NT-3 growth factor receptor (Homo sapiens) (UniProt Q16288)
[39] = target: Vascular endothelial growth factor receptor 2 (Homo sapiens) (UniProt P35968)
[40] = target: Serine/threonine-protein kinase WNK1 (Homo sapiens) (UniProt Q9H4A3)
[41] = target: 5-hydroxytryptamine receptor 2B (Homo sapiens) (UniProt P41595); conditions: Compound concentration 10.0 uM
[42] = target: 5-hydroxytryptamine receptor 6 (Homo sapiens) (UniProt P50406); conditions: Compound concentration 10.0 uM
[43] = target: D(4) dopamine receptor (Homo sapiens) (UniProt P21917); conditions: Compound concentration 10.0 uM
[44] = target: Sodium-dependent serotonin transporter (Homo sapiens) (UniProt P31645); conditions: Compound concentration 10.0 uM
[45] = target: Histamine H2 receptor (Homo sapiens) (UniProt P25021); conditions: Compound concentration 10.0 uM
[46] = Compound concentration 100.0 nM
[47] = Compound concentration 1000.0 nM

Q: `CNC(=O)c1ccc(Nc2ncc(C(F)(F)F)c(NCc3nccnc3N(C)S(C)(=O)=O)n2)cc1` [DEFACTINIB] was tested. Which residual activity [1, 46] did it give?
A: 100%

Q: What about the residual activity [2, 46] of the same compound?
A: 36%

Q: What about the residual activity [3, 46] of the same compound?
A: 85%

Q: What about the residual activity [4, 46] of the same compound?
A: 84%

Q: What about the residual activity [5, 46] of the same compound?
A: 100%

Q: What about the residual activity [6, 46] of the same compound?
A: 89%

Q: And the residual activity [7, 46]?
A: 75%

Q: And the residual activity [8, 46]?
A: 95%

Q: And the residual activity [9, 46]?
A: 79%

Q: What about the residual activity [10, 46] of the same compound?
A: 61%

Q: What about the residual activity [11, 46] of the same compound?
A: 91%

Q: And the residual activity [12, 46]?
A: 99%

Q: And the residual activity [13, 46]?
A: 64%

Q: And the residual activity [14, 46]?
A: 68%

Q: And the residual activity (Focal adhesion kinase 1; [46])?
A: 0.2%

Q: What about the residual activity [15, 46] of the same compound?
A: 83%

Q: What about the residual activity [16, 46] of the same compound?
A: 78%

Q: And the residual activity [17, 46]?
A: 47%

Q: And the residual activity [18, 46]?
A: 100%

Q: And the residual activity [19, 46]?
A: 98%

Q: What about the residual activity [20, 46] of the same compound?
A: 95%

Q: And the residual activity [21, 46]?
A: 70%

Q: What about the residual activity [22, 46] of the same compound?
A: 71%

Q: What about the residual activity [23, 46] of the same compound?
A: 83%

Q: What about the residual activity [24, 46] of the same compound?
A: 68%

Q: What about the residual activity [25, 46] of the same compound?
A: 98%

Q: What about the residual activity [26, 46] of the same compound?
A: 100%

Q: What about the residual activity [27, 46] of the same compound?
A: 100%

Q: What about the residual activity [28, 46] of the same compound?
A: 100%

Q: What about the residual activity [29, 46] of the same compound?
A: 99%

Q: What about the residual activity [30, 46] of the same compound?
A: 67%

Q: And the residual activity [31, 46]?
A: 30%

Q: And the residual activity [32, 46]?
A: 100%

Q: And the residual activity [33, 46]?
A: 100%

Q: And the residual activity [34, 46]?
A: 89%

Q: What about the residual activity [35, 46] of the same compound?
A: 51%

Q: And the residual activity [36, 46]?
A: 87%

Q: And the residual activity [37, 46]?
A: 100%

Q: What about the residual activity [38, 46] of the same compound?
A: 41%

Q: And the residual activity [39, 46]?
A: 73%

Q: And the residual activity [40, 46]?
A: 100%

Q: What about the inhibition [41] of the same compound?
A: 5.73%

Q: What about the inhibition [42] of the same compound?
A: -8.99%

Q: What about the inhibition [43] of the same compound?
A: 7.8%

Q: And the inhibition [44]?
A: 2.45%

Q: What about the inhibition [45] of the same compound?
A: 30.2%

Q: Which residual activity [1, 47] does the source give for `CN(c1ccnc(CNc2nc(Nc3ccc4c(c3)CC(=O)N4)ncc2C(F)(F)F)n1)S(C)(=O)=O` [PF-00911705] here?
A: 40%

Q: What about the residual activity [2, 47] of the same compound?
A: 100%

Q: And the residual activity [3, 47]?
A: 65%

Q: What about the residual activity [4, 47] of the same compound?
A: 80%

Q: What about the residual activity [5, 47] of the same compound?
A: 43%

Q: And the residual activity [6, 47]?
A: 95%

Q: What about the residual activity [7, 47] of the same compound?
A: 90%

Q: And the residual activity [8, 47]?
A: 91%

Q: What about the residual activity [9, 47] of the same compound?
A: 84%

Q: And the residual activity [10, 47]?
A: 26%

Q: And the residual activity [11, 47]?
A: 56%

Q: And the residual activity [12, 47]?
A: 90%

Q: And the residual activity [13, 47]?
A: 82%

Q: And the residual activity [14, 47]?
A: 87%

Q: What about the residual activity (Focal adhesion kinase 1; [47]) of the same compound?
A: 4.9%

Q: And the residual activity [15, 47]?
A: 78%

Q: What about the residual activity [16, 47] of the same compound?
A: 71%

Q: What about the residual activity [17, 47] of the same compound?
A: 48%

Q: And the residual activity [18, 47]?
A: 100%

Q: And the residual activity [19, 47]?
A: 57%

Q: What about the residual activity [20, 47] of the same compound?
A: 100%

Q: What about the residual activity [21, 47] of the same compound?
A: 11%

Q: And the residual activity [22, 47]?
A: 44%

Q: What about the residual activity [23, 47] of the same compound?
A: 63%

Q: What about the residual activity [24, 47] of the same compound?
A: 49%

Q: And the residual activity [25, 47]?
A: 80%

Q: What about the residual activity [26, 47] of the same compound?
A: 35%

Q: And the residual activity [27, 47]?
A: 90%

Q: What about the residual activity [28, 47] of the same compound?
A: 88%

Q: What about the residual activity [29, 47] of the same compound?
A: 82%

Q: And the residual activity [30, 47]?
A: 63%

Q: And the residual activity [31, 47]?
A: 21%

Q: And the residual activity [32, 47]?
A: 100%

Q: What about the residual activity [33, 47] of the same compound?
A: 82%

Q: And the residual activity [34, 47]?
A: 6%

Q: What about the residual activity [35, 47] of the same compound?
A: 17%

Q: What about the residual activity [36, 47] of the same compound?
A: 44%

Q: And the residual activity [37, 47]?
A: 100%

Q: And the residual activity [38, 47]?
A: 45%

Q: And the residual activity [39, 47]?
A: 56%

Q: What about the residual activity [40, 47] of the same compound?
A: 87%

Q: What about the inhibition [41] of the same compound?
A: 13.5%

Q: What about the inhibition [42] of the same compound?
A: 11.1%

Q: And the inhibition [43]?
A: 2.34%

Q: What about the inhibition [44] of the same compound?
A: 33.5%

Q: And the inhibition [45]?
A: 1.75%
